Source: PubChem BioAssay (NCI)
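Exposure lasted 48 hours, with cells grown in 96-well plates and compounds tested at five concentrations. TGI: concentration producing complete growth inhibition.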

Experiments:
Test in all cases: growth of human tumour cells (NCI), 48 h
[1] = tested on: 786-0 renal
[2] = tested on: A498 renal
[3] = tested on: A549 NSCLC
[4] = tested on: ACHN renal
[5] = tested on: CAKI-1 renal
[6] = tested on: CCRF-CEM leukemia
[7] = tested on: COLO 205 colon
[8] = tested on: DMS 114 small cell lung
[9] = tested on: DMS 273 small cell lung
[10] = tested on: EKVX NSCLC
[11] = tested on: HCC-2998 colon
[12] = tested on: HCT-15 colon
[13] = tested on: HL-60(TB) leukemia
[14] = tested on: HOP-18 NSCLC
[15] = tested on: HOP-62 NSCLC
[16] = tested on: HOP-92 NSCLC
[17] = tested on: HT29 colon
[18] = tested on: IGROV1 ovarian
[19] = tested on: K-562 leukemia
[20] = tested on: KM12 colon
[21] = tested on: LOX IMVI melanoma
[22] = tested on: M14 melanoma
[23] = tested on: M19-MEL melanoma
[24] = tested on: MALME-3M melanoma
[25] = tested on: MOLT-4 leukemia
[26] = tested on: NCI-H226 lung
[27] = tested on: NCI-H23 lung
[28] = tested on: NCI-H522 lung
[29] = tested on: OVCAR-3 ovarian
[30] = tested on: OVCAR-4 ovarian
[31] = tested on: OVCAR-5 ovarian
[32] = tested on: OVCAR-8 ovarian
[33] = tested on: RPMI-8226 leukemia
[34] = tested on: RXF 393 renal
[35] = tested on: RXF-631 renal
[36] = tested on: SF-268 CNS
[37] = tested on: SF-295 CNS
[38] = tested on: SF-539 CNS
[39] = tested on: SK-MEL-2 melanoma
[40] = tested on: SK-MEL-28 melanoma
[41] = tested on: SK-MEL-5 melanoma
[42] = tested on: SK-OV-3 ovarian
[43] = tested on: SN12C renal
[44] = tested on: SNB-19 CNS
[45] = tested on: SNB-75 CNS
[46] = tested on: SNB-78 CNS
[47] = tested on: SW-620 colon
[48] = tested on: TK-10 renal
[49] = tested on: U251 CNS
[50] = tested on: UACC-257 melanoma
[51] = tested on: UACC-62 melanoma
[52] = tested on: UO-31 renal
[53] = tested on: XF 498 CNS
[54] = tested on: DLD-1 colon
[55] = tested on: HCT-116 colon
[56] = tested on: KM20L2 colon
[57] = tested on: LXFL 529 NSCLC
[58] = tested on: NCI-H460 lung
[59] = tested on: SR leukemia

Work on `CCN=C1NN=C(c2ccccc2)c2cc(Cl)ccc2N1` yielded a TGI [1] of 34.1 µM, a TGI [2] of 90 µM and a TGI [3] of over 100 µM. It also gave a TGI [4] of over 100 µM, a TGI [5] of 36.9 µM and a TGI [6] of over 100 µM. For the same compound, the TGI [7] was 35.4 µM, the TGI [8] was 43.9 µM and the TGI [9] was 26.2 µM. The TGI [10] was 92.7 µM, the TGI [11] was 34.4 µM and the TGI [12] was 48.6 µM. For the same compound, the TGI [13] was 62.3 µM, the TGI [14] was over 100 µM and the TGI [15] was 48.2 µM. It also gave a TGI [16] of 47.5 µM, a TGI [17] of 32.3 µM and a TGI [18] of 70 µM. For the same compound, the TGI [19] was over 100 µM, the TGI [20] was 31.1 µM and the TGI [21] was 36.7 µM. For the same compound, the TGI [22] was 33.5 µM, the TGI [23] was 39.5 µM and the TGI [24] was 33.7 µM. For the same compound, the TGI [25] was 94.8 µM, the TGI [26] was 43.3 µM and the TGI [27] was 64.6 µM. The TGI [28] was 30.2 µM, the TGI [29] was 43.7 µM and the TGI [30] was over 100 µM. For the same compound, the TGI [31] was 60.9 µM, the TGI [32] was 69.4 µM and the TGI [33] was 87.1 µM. It also gave a TGI [34] of 58 µM, a TGI [35] of 41.7 µM and a TGI [36] of 91.1 µM. The TGI [37] was 37.5 µM, the TGI [38] was 35.8 µM and the TGI [39] was 32.8 µM. For the same compound, the TGI [40] was 33.7 µM, the TGI [41] was 30.7 µM and the TGI [42] was 68.7 µM. It also gave a TGI [43] of 88.5 µM, a TGI [44] of over 100 µM and a TGI [45] of 45.8 µM. The TGI [46] was 72 µM, the TGI [47] was 63.8 µM and the TGI [48] was 62.7 µM. It also gave a TGI [49] of 42.6 µM, a TGI [50] of 34.3 µM and a TGI [51] of 31.7 µM. For the same compound, the TGI [52] was 70.2 µM and the TGI [53] was 45.2 µM.
`C/C(=N\NC(N)=S)c1ccc2c(c1)OCO2` showed a TGI [1] of over 100 µM, a TGI [2] of over 100 µM and a TGI [3] of over 100 µM. The TGI [4] was over 100 µM, the TGI [5] was over 100 µM and the TGI [6] was over 100 µM. The TGI [7] was over 100 µM, the TGI [54] was over 100 µM and the TGI [8] was over 100 µM. The TGI [10] was over 100 µM, the TGI [11] was over 100 µM and the TGI [55] was over 100 µM. The TGI [12] was over 100 µM, the TGI [13] was over 100 µM and the TGI [14] was over 100 µM. For the same compound, the TGI [15] was over 100 µM, the TGI [16] was over 100 µM and the TGI [17] was over 100 µM. It also gave a TGI [18] of over 100 µM, a TGI [19] of over 100 µM and a TGI [20] of over 100 µM. The TGI [56] was over 100 µM, the TGI [21] was over 100 µM and the TGI [57] was over 100 µM. It also gave a TGI [22] of over 100 µM, a TGI [23] of over 100 µM and a TGI [24] of over 100 µM. It also gave a TGI [25] of over 100 µM, a TGI [26] of over 100 µM and a TGI [27] of over 100 µM. It also gave a TGI [58] of over 100 µM, a TGI [28] of over 100 µM and a TGI [29] of over 100 µM. For the same compound, the TGI [31] was over 100 µM, the TGI [32] was over 100 µM and the TGI [33] was over 100 µM. It also gave a TGI [34] of over 100 µM, a TGI [35] of over 100 µM and a TGI [36] of over 100 µM. It also gave a TGI [37] of over 100 µM, a TGI [38] of over 100 µM and a TGI [39] of over 100 µM. It also gave a TGI [40] of over 100 µM, a TGI [41] of over 100 µM and a TGI [42] of over 100 µM. It also gave a TGI [43] of over 100 µM, a TGI [44] of over 100 µM and a TGI [45] of over 100 µM. The TGI [46] was over 100 µM, the TGI [59] was over 100 µM and the TGI [47] was over 100 µM. It also gave a TGI [48] of over 100 µM, a TGI [49] of over 100 µM and a TGI [50] of over 100 µM. For the same compound, the TGI [51] was over 100 µM, the TGI [52] was over 100 µM and the TGI [53] was over 100 µM.
